The IC50 is the concentration at which inhibition is half-maximal.

In test [1] the test system is HPDE6-siDPC4 (HPDE6 cells with DPC4 expression stably suppressed by siRNA). As to the kind of experiment: MTS cell proliferation assay, HPDE6-siDPC4 cells. It is filed as cell-based. The conditions noted are these: Homo sapiens. As for the experimental part:
At the initial screening, compounds are tested in the MTS assay (or other cell proliferation assays such as SRB and Alamar Blue) against the cell line in which the specific gene is either deleted or suppressed by siRNA at a single dose of 10 μM (Toxicity Screening).
Compounds that show more than 50% cell growth inhibition at this concentration are selected to test against both isogenic cell lines (loss-of-function vs. wild type) at three different concentrations (10, 2 and 0.4 μM, Synthetic lethal Screening). Compounds that show a selectivity index ≧5 are selected for next round of screening—Selectivity Screening.
In the Selectivity Screening, compounds are tested against cancer cell lines with a specific loss-of-function mutation and normal cells (HPDE6 and FORF-TERT). Depending on their approximate potency assessed in the Synthetic lethal Screening, compounds are tested in a range of concentrations (8 concentrations per agent) in Selectivity Screening. Compounds that have nM IC50 values in loss-of-function cells and selectivity index values >10 are selected for phenotypic consequence tests and in vivo evaluations in animal models.
The inhibition of cell proliferation by library compounds was evaluated using the CellTiter 96 Non-Radioactive Cell Proliferation Assay following the protocol recommended by the manufacturer (Promega, Madison Wis.). […]
On the technique in general: Formazan colour is commonly taken as a measure of viable cells.

The test system of test [2] is Panc-1 (DPC4 wildtype). As to the kind of experiment: MTS cell proliferation assay, Panc-1 cells. The test is classed as cell-based. Conditions: Homo sapiens. The procedure:
(§1) The inhibition of cell proliferation by library compounds was evaluated using the CellTiter 96 Non-Radioactive Cell Proliferation Assay following the protocol recommended by the manufacturer (Promega, Madison Wis.). Briefly, 2000 cells were seeded in each well of 96-well plates in 90 μl growth medium. Cells were allowed to attach overnight followed by addition of 10 μl of serially diluted compounds into the plates. After incubation for 4 days at 37° C. in a humidified incubator, 20 μl of a 20:1 mixture of (3-(4,5-dimethylthiazol-2-yl)-5-(3-carboxymethoxyphenyl)-2-(4-sulfophenyl)-2H-tetrazolium, inner salt (MTS, 2 mg/ml) and an electron coupling reagent, phenazine methosulfate (PMS, 0.92 mg/ml), was added to each well and incubated for 3 hours at 37° C. Absorbance was then measured using the Wallace Victor microplate reader at 490 nm (PerkinElmer, Wellesley, Mass.). Data were expressed as the percentage of cell growth calculated from the absorbance corrected for background absorbance. The surviving fraction of cells was determined by dividing the mean absorbance values of the treated samples by the mean absorbance values of the DMSO control.
(§2) After generating the isogenic cell lines for the DPC4 gene, Applicants then carried out a screening process using the cell lines with the aim to identify compounds that selectively kill cells with deficient DPC4 function. […]

Test [3] relates to Forf. Description: MTS cell proliferation assay, Forf normal fibroblasts. Conditions: even at 200 μM. The test is classed as cell-based, human. As for the experimental part: as §1, §2
The test system of test [4] is IMR-90. As to the kind of experiment: MTS cell proliferation assay, IMR-90 normal fibroblasts. It is filed as cell-based, human. The conditions noted are these: IMR-90, even at 200 μM. As for the experimental part: as §1, §2
The test system of test [5] is pancreatic cancer cell lines. As to the kind of experiment: MTS cell proliferation assay, panel of pancreatic cancer cell lines. The test is classed as cell-based, human. The procedure:
as §1
Applicants further examined the anti-proliferative activity of UA62001 in a panel of cell lines including normal cell lines which have wildtype DPC4 and pancreatic cancer lines with either wildtype DPC4 or inactivated DPC4 (Table 1). […]

The test system of test [6] is BxPC-3 cells. As to the kind of experiment: Annexin V-FITC apoptosis assay. It is filed as cell-based, human. Conditions: BxPC-3, 25 μM, 24 hours; untreated control 4.6%. The procedure:
Cells were grown and treated with UA62001 as described in the cell cycle distribution analysis section above. Twenty-four hours after the treatment with the compound, cell media containing detached floating cells were transferred to 15 ml conical tubes; while the attached cells were trypsinized and collected in the same tube. Cells were then pelleted by centrifugation at 1500 rpm for 5 min, washed with PBS and then resuspended in 1×binding buffer at a concentration of 1×10^6 cells/ml. One hundred microliters (1×10^5 cells) were incubated with 5 μl of Annexin V-FITC (BD Pharmingen) and propidium iodide for 15 min in the dark at room temperature. After adding 400 μl of the 1× binding buffer, the cells were analyzed by flow cytometry (BD Immunocytometry systems). Data were acquired and analyzed using CellQuest software.

For `O=C1c2ccccc2C(=O)c2c1ccc1c(=O)n(-c3ccccc3)[nH]c21` [UA62001, 2-phenyl-1H-Naphth [2,3-g]indazole-3,6,11(2H)-trione], the IC50 was 6 µM in test [1] and 26 µM in test [2]. Besides, the growth inhibition entry in test [3] and in test [4] was “little growth inhibition” throughout. For the same compound, the “IC50 values in pancreatic cancer cell lines” value in test [5] was “low μM”. In addition, the “percentage of cells in the M1 region (Annexin V staining)” value in test [6] turned out to be 8.2%.

Source of the values: patent US8394742B2, “Methods, compounds and compositions with genotype selective anticancer activity” (The Translation Genomics Research Institute, priority 2005, dated 2013).
